Measured values from US9617602B2, “Methods and compositions for determining resistance to androgen receptor therapy” (Aragon Pharmaceuticals, Inc., priority 2012, dated 2017).

How the values were obtained:
Assay type in all cases: cell-based, human
[1] = system: LNCaP cells; experiment: Proliferation assay (CellTiter-Glo), agonist and antagonist mode
[2] = system: LNCaP/AR(cs) cells; experiment: as above
[3] = system: Class 1 ARN-509- and MDV3100-resistant cell lines; experiment: as above
[4] = system: Class 2 MDV3100- and ARN-509-resistant cell lines; experiment: as above
[5] = system: LNCaP cells; experiment: Transcriptional reporter assay (probasin-luciferase); details: [R1881] = 10 nM
Description: (§1) With the exception of the LNCaP/AR(cs)-Luc cells that contain an integrated androgen responsive reporter, cells were transiently transfected using Lipofectin® (Life Technologies) according to the manufacturer's protocol. […] Following transfection, the cells were incubated for 4 hours.
(§2) Following 48 hour incubation the medium was removed and the cells were lysed in 40 μL of lysis buffer (25 mM Tris Phosphate, 2 mM CDTA, 10% Glycerol, 0.5% Triton X-100, 2 mM DTT).

[6] = system: LNCaP/AR(cs) cells; experiment: as above; details: [R1881] = 10 nM
Description: as §1, §2

[7] = system: Class 1 resistant cell lines; experiment: as above; details: Class 1; [R1881] = 10 nM
Description: as §1, §2

[8] = system: Class 2 resistant cell lines; experiment: as above; details: Class 2; [R1881] = 10 nM
Description: as §1, §2

[9] = system: LNCaP cells; experiment: Endogenous gene transcriptional assay (real-time PCR of androgen responsive genes); details: 1 nM R1881 or 30 μM compound, vehicle=1.00
Description: (§3) Total RNA was isolated using the Aurum™ total RNA isolation kit (BIO-RAD, Hercules, Calif.). RNA (1 μg) was reverse transcribed using the iScript cDNA synthesis kit (BIO-RAD, Hercules, Calif.) to produce cDNA. Real-time PCR was performed using the Applied Biosystems 7900HT instrument and SYBR Green PCR Master Mix (Applied Biosystems, Foster City, Calif.). PCR reactions were performed in 6 μL according to the manufacturer's protocol and a thermocycle protocol of 95° C. for 10 minutes followed by 40 cycles of 95° C. for 15 seconds and 58° C. for 1 minute. Androgen responsive gene (PSA, SLUG, TMPRSS2, STEAP4, FKBP5, ORM1, NOV, FASN, NKX3.1, AMIGO2, BDNF, CAMK2N1, HPGD, NCAPD3, PLD1) expression was normalized to GAPDH expression and expressed relative to vehicle treatment of the parental cell line.
(§4) Gene expression was normalized to GAPDH as described above.

[10] = system: LNCaP/AR(cs) cells; experiment: as above
Description: as §3, §4

[11] = system: LNCaP ARN-509r1 cells; experiment: as above; details: 1 nM R1881 or 30 μM compound, vehicle=1.00
Description: as §3, §4

[12] = system: LNCaP ARN-509r2 cells; experiment: as above; details: 1 nM R1881 or 30 μM compound, vehicle=1.00
Description: as §3, §4

[13] = system: LNCaP/AR-Luc cells; experiment: as above; details: 1 nM R1881 or 30 μM compound, vehicle=1.00
Description: as §3, §4

[14] = system: AR in LNCaP/AR(cs) cells; experiment: AR chromatin immunoprecipitation (ChIP) of AR target genes; details: 1 nM R1881, 4 hours
Description: The samples were amplified on the ABI 7900HT instrument.

[15] = Homo sapiens, 168 h, read-out: Antagonist Proliferation Assay (% Viability)
[16] = Table 4A, 1 nM R1881 or 30 μM compound, vehicle=1.00
[17] = Tables 9A/9B, 1 nM R1881, vehicle=1.00

## C[C@]1(O)CC[C@H]2[C@@H]3CCC4=CC(=O)CCC4=C3C=C[C@@]21C [R1881, methyltrienolone]
[1]; [15]
  viability at 0.0001 µM: 100%
[1]; [R1881] = 0.1 nM, 7 days
  Agonist Proliferation Assay (% Viability): 100.0%
[2]; Homo sapiens, LNCaP/AR, 168 h, read-out: Antagonist Proliferation Assay (% Viability)
  viability at 0.0001 µM: 100%
[2]; LNCaP/AR(cs), [R1881] = 0.1 nM, 7 days
  Agonist Proliferation Assay (% Viability): 100.0%
[3]; Class 1, [R1881] = 0.1 nM, 7 days
  Agonist Proliferation Assay (% Viability): 100.0%
[3]; [15]
  viability at 0.0001 µM: 100%
[3]; high concentrations
  Effect of R1881 on proliferation of Class 1 cells: inhibits proliferation
[4]; Class 2, [R1881] = 0.1 nM, 7 days
  Agonist Proliferation Assay (% Viability): 100.0%
[4]; [15]
  viability at 0.0001 µM: 100%
[5]
  Agonist Transcriptional Reporter Assay (% Max Activity): >90%
  Antagonist Transcriptional Reporter Assay (% Max Activity): >90%
[6]
  Agonist Transcriptional Reporter Assay (% Max Activity): >90%
  Antagonist Transcriptional Reporter Assay (% Max Activity): >90%
[7]
  Agonist Transcriptional Reporter Assay (% Max Activity): >90%
  Antagonist Transcriptional Reporter Assay (% Max Activity): >90%
[8]
  Agonist Transcriptional Reporter Assay (% Max Activity): >90%
  Antagonist Transcriptional Reporter Assay (% Max Activity): >90%
[9]
  AMIGO2 gene expression: 0.68
  BDNF gene expression: 0.40
  CAM2KN1 gene expression: 0.13
  FASN gene expression: 5.58
  FKBP5 gene expression: 54.95
  HPGD gene expression: 100.43
  NCAPD3 gene expression: 104.69
  NKX3.1 gene expression: 30.06
  NOV gene expression: 0.15
  ORM1 gene expression: 873.10
  PLD1 gene expression: 0.02
  PSA gene expression: 47.84
  SLUG gene expression: 129.79
  STEAP4 gene expression: 639.15
  TMPRSS2 gene expression: 22.16
[10]; [16]
  AMIGO2 gene expression: 0.54
  BDNF gene expression: 0.48
  CAM2KN1 gene expression: 0.05
  FASN gene expression: 7.11
  FKBP5 gene expression: 97.01
  HPGD gene expression: 183.55
  NCAPD3 gene expression: 93.05
  NKX3.1 gene expression: 8.82
  NOV gene expression: 0.04
  ORM1 gene expression: 3444.31
  PLD1 gene expression: 0.02
  PSA gene expression: 19.16
  SLUG gene expression: 89.88
  STEAP4 gene expression: 1314.23
  TMPRSS2 gene expression: 17.51
[10]; [17]
  AMIGO2 gene expression: 0.98
  BDNF gene expression: 0.86
  CAM2KN1 gene expression: 0.04
  FASN gene expression: 4.12
  FKBP5 gene expression: 100.51
  HPGD gene expression: 324.60
  NCAPD3 gene expression: 95.54
  NKX3.1 gene expression: 12.72
  NOV gene expression: 0.05
  ORM1 gene expression: 6987.01
  PLD1 gene expression: 0.03
  PSA gene expression: 22.14
  SLUG gene expression: 91.84
  STEAP4 gene expression: 1498.46
  TMPRSS2 gene expression: 35.42
[11]
  AMIGO2 gene expression: 0.21
  BDNF gene expression: 0.31
  CAM2KN1 gene expression: 0.01
  FASN gene expression: 3.12
  FKBP5 gene expression: 53.45
  HPGD gene expression: 61.39
  NCAPD3 gene expression: 90.51
  NKX3.1 gene expression: 8.11
  NOV gene expression: 0.03
  ORM1 gene expression: 1296.13
  PLD1 gene expression: 0.03
  PSA gene expression: 85.63
  SLUG gene expression: 164.28
  STEAP4 gene expression: 1184.45
  TMPRSS2 gene expression: 37.27
[12]
  AMIGO2 gene expression: 0.55
  BDNF gene expression: 0.47
  CAM2KN1 gene expression: 0.02
  FASN gene expression: 4.82
  FKBP5 gene expression: 48.50
  HPGD gene expression: 59.30
  NCAPD3 gene expression: 54.95
  NKX3.1 gene expression: 10.20
  NOV gene expression: 0.07
  ORM1 gene expression: 625.99
  PLD1 gene expression: 0.02
  PSA gene expression: 7.89
  SLUG gene expression: 77.17
  STEAP4 gene expression: 377.41
  TMPRSS2 gene expression: 15.14
[13]
  AMIGO2 gene expression: 0.54
  BDNF gene expression: 0.18
  CAM2KN1 gene expression: 0.11
  FASN gene expression: 3.48
  FKBP5 gene expression: 20.82
  HPGD gene expression: 2.41
  NCAPD3 gene expression: 17.27
  NKX3.1 gene expression: 11.24
  NOV gene expression: 0.47
  ORM1 gene expression: 7.89
  PLD1 gene expression: 0.15
  PSA gene expression: 2.10
  SLUG gene expression: 48.84
  STEAP4 gene expression: 20.25
  TMPRSS2 gene expression: 3.46
[14]
  AR DNA binding (ChIP), LNCaP/AR(cs) cells: promoted AR DNA
